According to patent publication US20230286923A1 (INIPHARM, INC., priority 2020, published 2023):

Tests used:
HSD17B13 enzyme [1] = biological target: T1, HSD17B13 enzyme (Homo sapiens (Human), UniProt Q7Z5P4); test: NADH detection assay (fluorescence based LTB3 assay) for HSD17B13 activity; type: biochemical; conditions: substrate 25 µM LTB3, 3 mM NAD+, 125 nM enzyme
Experimental: The fluorescence based Leukotriene B3 (LTB3) assay monitors the fluorescence of NADH, which is generated from NAD+ during the dehydrogenation of the substrate LTB3. The reactions were performed in a 384-well plates (Greiner; #655076) in a 20 µl reaction volume containing the following reagents (final concentrations): 25 µM LTB3 (Cayman; #20109); 3 mM NAD^+ (Sigma; #N0623); 125 nM HSD17B13 enzyme (in-house; E. coli expressed His-tagged, purified, soluble protein); 1 M potassium phosphate buffer, pH 7.4; and 1% DMSO. Reactions were initiated by co-addition of NAD+ and enzyme, and monitored for 1 hour at 26.5° C. Generation of NADH was measured as the fluorescence signal (Excitation at 340 nm and Emission at 445 nm) at 1 hour minus the baseline fluorescence at t=0. Fluorescence signals in the absence of LTB3 (negative control values), were subtracted from all values so that the results reflected substrate-dependent production of NADH. NADH standards were included to allow the conversion of relative fluorescence units into rates of enzyme activity. Enzyme activity in the presence of test compounds was expressed as a percentage of the uninhibited enzyme activity, and plotted versus inhibitor concentration. Non-linear regression was performed using a four-parameter logistic model and Microsoft Excel Solver software Ten concentrations of inhibitor were tested in duplicate (in the range of 30 µM - 2.5 nM), and two independent concentration response assays were performed.

HSD17B13 enzyme [2] = biological target: T1, HSD17B13 enzyme; test: Estrone detection assay (LC/MS, conversion of estradiol to estrone) for HSD17B13 activity; type: biochemical; conditions: substrate 4 µM estradiol, 6 mM NAD+, 30 nM enzyme
Experimental: The liquid chromatography/mass spectrometry (LC/MS) estrone detection assay monitors the conversion of estradiol to estrone by HSD17B13. This assay was undertaken in a 96wp format (Eppendorf deep well Plate 96/500) in an 80 µl reaction volume containing: 4 µM of Estradiol (E2; Cayman; #10006315), 6 mM NAD^+ (Sigma; #N0623) and 30 nM HSD17B13 enzyme (in-house; E. coli expressed His-tagged, purified, soluble protein) in a reaction containing 1 M potassium phosphate buffer pH 7.4, with 0.5% vehicle (DMSO). Reactions were incubated for 2 hours at 26.5° C., and estradiol (E2) conversion to estrone (E1) was quantitated by LC-MS/MS based analyte detection for both E2 and E1 using LCMS grade reagents.
Reactions were terminated by the addition of two volumes of acetonitrile (MeCN; LCMS grade; CAS# 75/05/8) containing deuterated (D4)-E1 used as internal standard (Clear Synth; #CS-T-54273; 500 ng/mL final concentration). Samples were applied to pre-prepared Bond Elut-C18 extraction cartridges (3 mL; Agilent; #12102028), washed and eluted in MeCN. Eluates were dried under nitrogen and re-suspended in 60% methanol (LCMS grade methanol; CAS# 67/56/1) before submission for analysis. Aqueous linearity for E2 and E1 were included for quantification.
Analysis of samples was undertaken on a XBridge BEH C18 column (Waters; #186003033) using 0.1% Diethyl Amine in MeCN (mobile phase A; DEA CAS# 109-89-7) and 0.1% Diethyl Amine in milli-Q water (mobile phase B) in a 3 min gradient allowing 25%B. Analytes were detected in negative mode using MRM analysis, with E2 having a RT of 1.85 min and E1 having a RT of 2 min. Activity of the enzyme, in the absence of NAD^+, was used to evaluate specificity of conversion. Enzyme activity in the presence of test samples was expressed as a percentage of the uninhibited enzyme activity, and plotted versus inhibitor concentration. Non-linear regression was performed using a four-parameter logistic model and GraphPad Prism software (GraphPad Software, La Jolla, CA). All assessments were undertaken in duplicate evaluations and pooled during extraction process and subsequently injected as duplicates for LC-MS/MS analysis.

T1 sequence (Q7Z5P4 20-300): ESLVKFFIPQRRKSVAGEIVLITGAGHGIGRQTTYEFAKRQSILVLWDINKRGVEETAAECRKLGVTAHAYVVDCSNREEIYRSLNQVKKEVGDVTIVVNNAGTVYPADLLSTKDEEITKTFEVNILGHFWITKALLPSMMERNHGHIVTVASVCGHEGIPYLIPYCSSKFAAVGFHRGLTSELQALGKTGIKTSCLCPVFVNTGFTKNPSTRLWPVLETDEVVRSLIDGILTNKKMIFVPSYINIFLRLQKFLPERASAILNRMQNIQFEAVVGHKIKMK

SMILES	IC50 (HSD17B13 enzyme [1]) [nM]	IC50 (HSD17B13 enzyme [2]) [nM]
COc1ccccc1CCn1cnc2cccc(NC(=O)c3ccc(O)c(Cl)c3)c2c1=O [Example 1, 3-chloro-4-hydroxy-N-(3-(2-methoxyphenethyl)-4-oxo-3,4-dihydroquinazolin-5-yl)benzamide]	≤ 1000	≤ 100
COc1ccccc1CCn1cnc2cccc(NC(=O)c3ccc(O)c(F)c3)c2c1=O [Example 2, 3-fluoro-4-hydroxy-N-(3-(2-methoxyphenethyl)-4-oxo-3,4-dihydroquinazolin-5-yl)benzamide]	≤ 1000	≤ 100
O=C(Nc1cccc2ncn(Cc3ccccc3)c(=O)c12)c1ccc(O)c(Cl)c1 [Example 3, N-(3-benzyl-4-oxo-3,4-dihydroquinazolin-5-yl)-3-chloro-4-hydroxybenzamide]	≤ 1000	≤ 100
COc1ccccc1CCn1cnc2cccc(NC(=O)c3ccc(OCC(=O)O)c(F)c3)c2c1=O [Example 4, 2-(2-fluoro-4-((3-(2-methoxyphenethyl)-4-oxo-3,4-dihydroquinazolin-5-yl)carbamoyl)phenoxy)acetic acid]	> 10000	1000 to 10000
COc1ccccc1CCn1cnc2cccc(NC(=O)c3ccc(C(=O)O)c(Cl)c3)c2c1=O [Example 5, 2-chloro-4-((3-(2-methoxyphenethyl)-4-oxo-3,4-dihydroquinazolin-5-yl)carbamoyl)benzoic acid]	> 10000	1000 to 10000
COc1ccccc1Cn1cnc2cccc(NC(=O)c3ccc(O)c(Cl)c3)c2c1=O [Example 6, 3-chloro-4-hydroxy-N-(3-(2-methoxybenzyl)-4-oxo-3,4-dihydroquinazolin-5-yl)benzamide]	≤ 1000	≤ 100
COc1ccccc1CCn1cnc2cccc(NC(=O)c3ccnc(C(F)(F)F)c3)c2c1=O [Example 7, N-(3-(2-methoxyphenethyl)-4-oxo-3,4-dihydroquinazolin-5-yl)-2-(trifluoromethyl)isonicotinamide]	> 10000	> 10000
O=C(Nc1cccc2ncn(-c3ccccc3)c(=O)c12)c1ccc(O)c(Cl)c1 [Example 8, 3-chloro-4-hydroxy-N-(4-oxo-3-phenyl-3,4-dihydroquinazolin-5-yl)benzamide]	> 10000	100 to 1000
O=C(Nc1cccc2ncn(-c3cccnc3)c(=O)c12)c1ccc(O)c(Cl)c1 [Example 9, 3-chloro-4-hydroxy-N-(4-oxo-3-(pyridin-3-yl)-3,4-dihydroquinazolin-5-yl)benzamide]	> 10000	100 to 1000
CC(C)(C)CCn1cnc2cccc(NC(=O)c3ccc(O)c(Cl)c3)c2c1=O [Example 10, 3-chloro-N-(3-(3,3-dimethylbutyl)-4-oxo-3,4-dihydroquinazolin-5-yl)-4-hydroxybenzamide]	≤ 1000	≤ 100
Cn1c(-c2cccnc2)nc2cccc(NC(=O)c3ccc(O)c(Cl)c3)c2c1=O [Example 11, 3-chloro-4-hydroxy-N-(3-methyl-4-oxo-2-(pyridin-3-yl)-3,4-dihydroquinazolin-5-yl)benzamide]	1000 to 5000	100 to 1000
O=C(Nc1cccc2ncn(CC3CC3)c(=O)c12)c1ccc(S(=O)(=O)NC(=O)c2ccccc2)c(Cl)c1 [Example 14, 4-(N-benzoylsulfamoyl)-3-chloro-N-(3-(cyclopropylmethyl)-4-oxo-3,4-dihydroquinazolin-5-yl)benzamide]	1000 to 5000	1000 to 10000
CC(C)(C)CCn1cnc2cccc(NC(=O)c3cc(Cl)c(O)nn3)c2c1=O [Example 15, 5-chloro-N-(3-(3,3-dimethylbutyl)-4-oxo-3,4-dihydroquinazolin-5-yl)-6-hydroxypyridazine-3-carboxamide]	> 10000	1000 to 10000
CC(C)(C)CCn1cnc2cccc(NC(=O)c3ccc(S(=O)(=O)NC(=O)c4cccnc4)c(Cl)c3)c2c1=O [Example 16, N-((2-chloro-4-((3-(3,3-dimethylbutyl)-4-oxo-3,4-dihydroquinazolin-5-yl)carbamoyl)phenyl)sulfonyl)nicotinamide]	5000 to 10000	1000 to 10000
Cn1c(-c2cccnc2)nc2cccc(NC(=O)c3ccc(-c4nnn[nH]4)c(F)c3)c2c1=O [Example 17, 3-fluoro-N-(3-methyl-4-oxo-2-(pyridin-3-yl)-3,4-dihydroquinazolin-5-yl)-4-(1H-tetrazol-5-yl)benzamide]	> 10000	> 10000
CC(C)(C)CCn1cnc2cccc(NC(=O)c3ccc(S(=O)(=O)NC(=O)c4ccccc4)c(Cl)c3)c2c1=O [Example 18, 4-(N-benzoylsulfamoyl)-3-chloro-N-(3-(3,3-dimethylbutyl)-4-oxo-3,4-dihydroquinazolin-5-yl)benzamide]	> 10000	1000 to 10000
COc1ccccc1CCn1cnc2cccc(NC(=O)c3cc(Cl)c4[nH]c(=O)[nH]c4c3)c2c1=O [Example 19, 7-chloro-N-(3-(2-methoxyphenethyl)-4-oxo-3,4-dihydroquinazolin-5-yl)-2-oxo-2,3-dihydro-1H-benzo[d]imidazole-5-carboxamide]	1000 to 5000	> 10000
O=C(Nc1cccc2ncn(Cc3ccncc3)c(=O)c12)c1ccc(O)c(F)c1 [Example 20, 3-fluoro-4-hydroxy-N-(4-oxo-3-(pyridin-4-ylmethyl)-3,4-dihydroquinazolin-5-yl)benzamide]	> 10000	100 to 1000
COc1ccccc1CCn1cnc2cccc(NC(=O)c3ccc(-c4cn[nH]c4)c(F)c3)c2c1=O [Example 21, 3-fluoro-N-(3-(2-methoxyphenethyl)-4-oxo-3,4-dihydroquinazolin-5-yl)-4-(1H-pyrazol-4-yl)benzamide]	> 10000	> 10000
COc1ccccc1CCn1cnc2cccc(NC(=O)c3ccc(-c4cc[nH]n4)c(F)c3)c2c1=O [Example 22, 3-fluoro-N-(3-(2-methoxyphenethyl)-4-oxo-3,4-dihydroquinazolin-5-yl)-4-(1H-pyrazol-3-yl)benzamide]	1000 to 5000	> 10000
COc1ccccc1CCn1cnc2cccc(NC(=O)c3ccc(P(=O)(O)O)c(F)c3)c2c1=O [Example 23, (2-fluoro-4-((3-(2-methoxyphenethyl)-4-oxo-3,4-dihydroquinazolin-5-yl)carbamoyl)phenyl)phosphonic acid]	> 10000	> 10000
CC(C)(C)n1ccc(Cn2cnc3cccc(NC(=O)c4cc(F)c(O)c(C#N)c4)c3c2=O)n1 [Example 63, N-(3-((1-(tert-butyl)-1H-pyrazol-3-yl)methyl)-4-oxo-3,4-dihydroquinazolin-5-yl)-3-cyano-5-fluoro-4-hydroxybenzamide]		100 to 1000
O=C(Nc1cccc2ncn(Cc3ccccc3OC(F)(F)F)c(=O)c12)c1cc(F)c(O)c(C(F)(F)F)c1 [Example 64, 3-fluoro-4-hydroxy-N-(4-oxo-3-(2-(trifluoromethoxy)benzyl)-3,4-dihydroquinazolin-5-yl)-5-(trifluoromethyl)benzamide]		≤ 100
O=C(Nc1cccc2ncn(Cc3cccc(F)c3)c(=O)c12)c1cc(Cl)c(O)c(=O)[nH]1 [Example 65, 4-chloro-N-(3-(3-fluorobenzyl)-4-oxo-3,4-dihydroquinazolin-5-yl)-5-hydroxy-6-oxo-1,6-dihydropyridine-2-carboxamide]		> 10000
